Source: patent US10736883B2, “Triazole furan compounds as agonists of the APJ receptor” (AMGEN INC., priority 2016, dated 2020)

target: APJ receptor (Homo sapiens (Human), UniProt P35414); assay: [35S]GTPγS binding assay on membranes from CHO cells stably expressing human APJ receptor; type: biochemical; settings: membranes of CHO cells stably expressing human APJ receptor, means of several independent experiments, read-out: Activity hAPJ SPA EC50 IP
How it was run: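 Membranes from CHO cells stably expressing human APJ were incubated with 0.2 nM [35S]GTPγS and ligands for 90 min at RT in 20 mM HEPES pH 7.5, 5 mM MgCl2, 200 mM NaCl, 3 μM GDP, 0.1% BSA with WGA PS beads. Nonspecific binding was set with 100 μM GTPγS. EC50 came from non-linear regression.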

APJ receptor, sequence (P35414 whole entry): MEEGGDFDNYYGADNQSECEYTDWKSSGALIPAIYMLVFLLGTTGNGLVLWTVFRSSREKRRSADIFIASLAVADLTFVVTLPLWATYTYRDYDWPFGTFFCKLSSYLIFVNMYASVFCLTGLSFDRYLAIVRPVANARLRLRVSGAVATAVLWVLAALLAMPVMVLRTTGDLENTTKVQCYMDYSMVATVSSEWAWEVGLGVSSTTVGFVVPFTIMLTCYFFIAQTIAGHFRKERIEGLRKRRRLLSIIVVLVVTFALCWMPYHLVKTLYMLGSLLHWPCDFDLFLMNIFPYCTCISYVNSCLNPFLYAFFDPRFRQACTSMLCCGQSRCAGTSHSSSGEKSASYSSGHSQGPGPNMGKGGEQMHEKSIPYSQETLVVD

| Compound | EC50 |
| --- | --- |
| COc1cccc(OC)c1-n1c(NS(=O)(=O)[C@H](C)[C@@H](O)c2ncn3ccccc23)nnc1-c1ccc(C)o1 (single isomer, unassigned) [Example 288.0, (1R,2S)—N-(4-(2,6-Dimethoxyphenyl)-5-(5-methyl-2-furanyl)-4H-1,2,4-triazol-3-yl)-1-hydroxy-1-imidazo[1,5-a]pyridin-1-yl-2-propanesulfonamide or (1S,2R)—N-(4-(2,6-dimethoxyphenyl)-5-(5-methyl-2-furanyl)-4H-1,2,4-triazol-3-yl)-1-hydroxy-1-imidazo[1,5-a]pyridin-1-yl-2-propanesulfonamide] | 4200 pM |
| COc1cccc(OC)c1-n1c(NS(=O)(=O)[C@@H](C)[C@H](O)c2cn(C)cn2)nnc1-c1ccc(C)o1.COc1cccc(OC)c1-n1c(NS(=O)(=O)[C@H](C)[C@@H](O)c2cn(C)cn2)nnc1-c1ccc(C)o1 (mixture of isomers) [Example 301.0, (1R,2S)—N-(4-(2,6-Dimethoxyphenyl)-5-(5-methyl-2-furanyl)-4H-1,2,4-triazol-3-yl)-1-hydroxy-1-(1-methyl-1H-imidazol-4-yl)-2-propanesulfonamide and (1S,2R)—N-(4-(2,6-dimethoxyphenyl)-5-(5-methyl-2-furanyl)-4H-1,2,4-triazol-3-yl)-1-hydroxy-1-(1-methyl-1H-imidazol-4-yl)-2-propanesulfonamide] | 13000 pM |
| COc1cccc(OC)c1-n1c(NS(=O)(=O)[C@@H](C)Cc2ncc(F)cn2)nnc1-c1ccc(C)o1 (racemic) [Example 94.0, (2S)—N-(4-(2,6-Dimethoxyphenyl)-5-(5-methyl-2-furanyl)-4H-1,2,4-triazol-3-yl)-1-(5-fluoro-2-pyrimidinyl)-2-propanesulfonamide and (2R)—N-(4-(2,6-dimethoxyphenyl)-5-(5-methyl-2-furanyl)-4H-1,2,4-triazol-3-yl)-1-(5-fluoro-2-pyrimidinyl)-2-propanesulfonamide] | 170 pM |
| CC[C@H](Cc1ncc(F)cn1)S(=O)(=O)Nc1nnc(-c2ccc(C)o2)n1-c1c(OC)cccc1OC [Example 128.0, (R)-N-(4-(2,6-dimethoxyphenyl)-5-(5-methylfuran-2-yl)-4H-1,2,4-triazol-3-yl)-1-(5-fluoropyrimidin-2-yl)butane-2-sulfonamide and (R)-N-(4-(2,6-dimethoxyphenyl)-5-(5-methylfuran-2-yl)-4H-1,2,4-triazol-3-yl)-1-(5-fluoropyrimidin-2-yl)butane-2-sulfonamide] | 1100 pM |
| COc1cccc(OC)c1-n1c(NS(=O)(=O)[C@@H](C)[C@](C)(N)c2ncc(F)cn2)nnc1-c1ccc(C)o1 (single isomer, unassigned) [Example 243.0] | 870 pM |
| COc1cccc(OC)c1-n1c(NS(=O)(=O)[C@H](C)[C@H](O)c2ccnc3c2OCCC3)nnc1-c1ccc(C)o1 (racemic) [Example 291.0, (1R,2R)-1-(3,4-Dihydro-2H-pyrano[3,2-b]pyridin-8-yl)-N-(4-(2,6-dimethoxyphenyl)-5-(5-methyl-2-furanyl)-4H-1,2,4-triazol-3-yl)-1-hydroxy-2-propanesulfonamide and (1S,2S)-1-(3,4-dihydro-2H-pyrano[3,2-b]pyridin-8-yl)-N-(4-(2,6-dimethoxyphenyl)-5-(5-methyl-2-furanyl)-4H-1,2,4-triazol-3-yl)-1-hydroxy-2-propanesulfonamide] | 5000 pM |
| COc1cccc(OC)c1-n1c(NS(=O)(=O)CCc2ncc(Cl)cc2-c2ccncc2)nnc1-c1ccco1 [Example 222.0, 2-(5-chloro-3,4′-bipyridin-2-yl)-N-(4-(2,6-dimethoxyphenyl)-5-(2-furanyl)-4H-1,2,4-triazol-3-yl)ethanesulfonamide] | 310 pM |
| COc1cccc(OC)c1-n1c(NS(=O)(=O)[C@@H](C)[C@@H](C)c2ncc(F)cn2)nnc1-c1ccc(C)o1 [Example 110.0] | 970 pM |
| COc1cccc(OC)c1-n1c(NS(=O)(=O)CCc2ncc(F)cn2)nnc1-c1ccc(C)o1 [Example 125.0, N-(4-(2,6-Dimethoxyphenyl)-5-(5-methylfuran-2-yl)-4H-1,2,4-triazol-3-yl)-2-(5-fluoropyrimidin-2-yl)ethanesulfonamide] | 340 pM |
| Cc1ccc(-c2nnc(NS(=O)(=O)[C@@H](C)Cc3ncc(F)cn3)n2C2CC2)o1 (racemic) [Example 319.0, (2R)—N-(4-Cyclopropyl-5-(5-methyl-2-furanyl)-4H-1,2,4-triazol-3-yl)-1-(5-fluoro-2-pyrimidinyl)-2-propanesulfonamide and (2S)—N-(4-cyclopropyl-5-(5-methyl-2-furanyl)-4H-1,2,4-triazol-3-yl)-1-(5-fluoro-2-pyrimidinyl)-2-propanesulfonamide] | 610000 pM |
| CCO[C@H](c1ncc(C)cn1)[C@@H](C)S(=O)(=O)Nc1nnc(-c2ccc(C)o2)n1-c1c(OC)cccc1OC (single isomer, unassigned) [Example 130.0, (1R,2R)-N-(4-(2,6-dimethoxyphenyl)-5-(5-methylfuran-2-yl)-4H-1,2,4-triazol-3-yl)-1-ethoxy-1-(5-methylpyrimidin-2-yl)propane-2-sulfonamide or (1S,2S)-N-(4-(2,6-dimethoxyphenyl)-5-(5-methylfuran-2-yl)-4H-1,2,4-triazol-3-yl)-1-ethoxy-1-(5-methylpyrimidin-2-yl)propane-2-sulfonamide] | 3500 pM |
| COc1cccc(OC)c1-n1c(NS(=O)(=O)C[C@@](C)(F)c2ncc(C#N)cn2)nnc1-c1ccc(C)o1 (racemic) [Example 229.0, (2S)-2-(5-Cyano-2-pyrimidinyl)-N-(4-(2,6-dimethoxyphenyl)-5-(5-methyl-2-furanyl)-4H-1,2,4-triazol-3-yl)-2-fluoro-1-propanesulfonamide and (2R)-2-(5-cyano-2-pyrimidinyl)-N-(4-(2,6-dimethoxyphenyl)-5-(5-methyl-2-furanyl)-4H-1,2,4-triazol-3-yl)-2-fluoro-1-propanesulfonamide] | 390 pM |
| Cc1ccc(-c2nnc(NS(=O)(=O)[C@@H](C)Cc3ncc(F)cn3)n2C2CCOCC2)o1 (racemic) [Example 317.0, (2S)-1-(5-Fluoro-2-pyrimidinyl)-N-(5-(5-methyl-2-furanyl)-4-(tetrahydro-2H-pyran-4-yl)-4H-1,2,4-triazol-3-yl)-2-propanesulfonamide and (2R)-1-(5-fluoro-2-pyrimidinyl)-N-(5-(5-methyl-2-furanyl)-4-(tetrahydro-2H-pyran-4-yl)-4H-1,2,4-triazol-3-yl)-2-propanesulfonamide] | 310000 pM |
| COc1cccc(OC)c1-n1c(NS(=O)(=O)[C@H](C)Cc2ncc(Cl)cc2C#N)nnc1-c1ccco1 (single isomer, unassigned) [Example 20.0, (2R)-1-(5-chloro-3-cyano-2-pyridinyl)-N-(4-(2,6-dimethoxyphenyl)-5-(2-furanyl)-4H-1,2,4-triazol-3-yl)-2-propanesulfonamide or (2S)-1-(5-chloro-3-cyano-2-pyridinyl)-N-(4-(2,6-dimethoxyphenyl)-5-(2-furanyl)-4H-1,2,4-triazol-3-yl)-2-propanesulfonamide] | 300 pM |
| COc1cccc(OC)c1-n1c(NS(=O)(=O)[C@@H](C)Cc2ncc(Cl)cc2C#N)nnc1-c1ccco1 (mixture of isomers) [Example 18.0, (2S)-1-(5-chloro-3-cyano-2-pyridinyl)-N-(4-(2,6-dimethoxyphenyl)-5-(2-furanyl)-4H-1,2,4-triazol-3-yl)-2-propanesulfonamide and (2R)-1-(5-chloro-3-cyano-2-pyridinyl)-N-(4-(2,6-dimethoxyphenyl)-5-(2-furanyl)-4H-1,2,4-triazol-3-yl)-2-propanesulfonamide] | 280 pM |
| COc1cccc(OC)c1-n1c(NS(=O)(=O)C[C@](C)(O)c2ncc(C#N)cn2)nnc1-c1ccc(C)o1 (single isomer, unassigned) [Example 233.0, (R)-2-(5-Cyanopyrimidin-2-yl)-N-(4-(2,6-dimethoxyphenyl)-5-(5-methylfuran-2-yl)-4H-1,2,4-triazol-3-yl)-2-hydroxypropane-1-sulfonamide or (S)-2-(5-cyanopyrimidin-2-yl)-N-(4-(2,6-dimethoxyphenyl)-5-(5-methylfuran-2-yl)-4H-1,2,4-triazol-3-yl)-2-hydroxypropane-1-sulfonamide] | 500 pM |
| COc1cnc([C@H](O)[C@@H](C)S(=O)(=O)Nc2nnc(-c3ccc(C)o3)n2-c2c(OC)cccc2OC)cn1 (single isomer, unassigned) [Example 177.0, (1S,2R)—N-(4-(2,6-Dimethoxyphenyl)-5-(5-methyl-2-furanyl)-4H-1,2,4-triazol-3-yl)-1-hydroxy-1-(5-methoxy-2-pyrazinyl)-2-propanesulfonamide or (1R,2S)—N-(4-(2,6-dimethoxyphenyl)-5-(5-methyl-2-furanyl)-4H-1,2,4-triazol-3-yl)-1-hydroxy-1-(5-methoxy-2-pyrazinyl)-2-propanesulfonamide] | 2800 pM |
| COc1cccc(OC)c1-n1c(NS(=O)(=O)[C@H](C)Cc2ncc(Br)cn2)nnc1-c1ccco1 (single isomer, unassigned) [Example 36.0, (2R)-1-(5-bromo-2-pyrimidinyl)-N-(4-(2,6-dimethoxyphenyl)-5-(2-furanyl)-4H-1,2,4-triazol-3-yl)-2-propanesulfonamide or (2S)-1-(5-bromo-2-pyrimidinyl)-N-(4-(2,6-dimethoxyphenyl)-5-(2-furanyl)-4H-1,2,4-triazol-3-yl)-2-propanesulfonamide] | 3500 pM |
| COc1cccc(OC)c1-n1c(NS(=O)(=O)[C@@H](CCO)[C@H](C)c2ncc(C)cn2)nnc1-c1ccc(C)o1 (single isomer, unassigned) [Example 62.0] | 220 pM |
